The supplement of paper PMC11451515

Test system: SEM cells
Assay: cell viability relative to DMSO control; higher = less cytotoxic
Details: 48 h
Method in brief: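 NOMO1, SEM and P12-Ichikawa leukemia cells spent at least four passages adapting to each medium before use. They were seeded at 500 cells/well (NOMO1, SEM) or 1000 cells/well (P12-Ichikawa) in 5 μl in 1536-well plates and pin-dosed with library compounds in DMSO at 11 threefold steps from 47 μM down to 0.79 nM. After 48 h at 37°C, CellTiter-Glo One luminescence was read. Viability is reported as a percentage of the DMSO wells on each plate, with cell-free wells as background.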

[1] = HPLM + 10% dialyzed FBS, 0.000781 µM
[2] = HPLM + 10% dialyzed FBS, 0.00234 µM
[3] = HPLM + 10% dialyzed FBS, 0.00702 µM
[4] = HPLM + 10% dialyzed FBS, 0.0211 µM
[5] = HPLM + 10% dialyzed FBS, 0.0632 µM
[6] = HPLM + 10% dialyzed FBS, 0.19 µM
[7] = HPLM + 10% dialyzed FBS, 0.569 µM
[8] = HPLM + 10% dialyzed FBS, 1.71 µM
[9] = HPLM + 10% dialyzed FBS, 5.12 µM
[10] = HPLM + 10% dialyzed FBS, 15.4 µM
[11] = HPLM + 10% dialyzed FBS, 46.1 µM
[12] = RPMI 5 mM glucose + 10% dialyzed FBS, 0.000781 µM
[13] = RPMI 5 mM glucose + 10% dialyzed FBS, 0.00234 µM
[14] = RPMI 5 mM glucose + 10% dialyzed FBS, 0.00702 µM
[15] = RPMI 5 mM glucose + 10% dialyzed FBS, 0.0211 µM
[16] = RPMI 5 mM glucose + 10% dialyzed FBS, 0.0632 µM
[17] = RPMI 5 mM glucose + 10% dialyzed FBS, 0.19 µM
[18] = RPMI 5 mM glucose + 10% dialyzed FBS, 0.569 µM
[19] = RPMI 5 mM glucose + 10% dialyzed FBS, 1.71 µM
[20] = RPMI 5 mM glucose + 10% dialyzed FBS, 5.12 µM
[21] = RPMI 5 mM glucose + 10% dialyzed FBS, 15.4 µM
[22] = RPMI 5 mM glucose + 10% dialyzed FBS, 46.1 µM
[23] = RPMI 5 mM glucose + 10% FBS, 0.000781 µM
[24] = RPMI 5 mM glucose + 10% FBS, 0.00234 µM
[25] = RPMI 5 mM glucose + 10% FBS, 0.00702 µM
[26] = RPMI 5 mM glucose + 10% FBS, 0.0211 µM
[27] = RPMI 5 mM glucose + 10% FBS, 0.0632 µM
[28] = RPMI 5 mM glucose + 10% FBS, 0.19 µM
[29] = RPMI 5 mM glucose + 10% FBS, 0.569 µM
[30] = RPMI 5 mM glucose + 10% FBS, 1.71 µM
[31] = RPMI 5 mM glucose + 10% FBS, 5.12 µM
[32] = RPMI 5 mM glucose + 10% FBS, 15.4 µM
[33] = RPMI 5 mM glucose + 10% FBS, 46.1 µM

| Compound | cell viability [1] | cell viability [2] | cell viability [3] | cell viability [4] | cell viability [5] | cell viability [6] | cell viability [7] | cell viability [8] | cell viability [9] | cell viability [10] | cell viability [11] | cell viability [12] | cell viability [13] | cell viability [14] | cell viability [15] | cell viability [16] | cell viability [17] | cell viability [18] | cell viability [19] | cell viability [20] | cell viability [21] | cell viability [22] | cell viability [23] | cell viability [24] | cell viability [25] | cell viability [26] | cell viability [27] | cell viability [28] | cell viability [29] | cell viability [30] | cell viability [31] | cell viability [32] | cell viability [33] |
| --- | --- | --- | --- | --- | --- | --- | --- | --- | --- | --- | --- | --- | --- | --- | --- | --- | --- | --- | --- | --- | --- | --- | --- | --- | --- | --- | --- | --- | --- | --- | --- | --- | --- |
| CC[C@]1(O)C[C@@H]2CN(CCc3c([nH]c4ccccc34)[C@@](C(=O)OC)(c3cc4c(cc3OC)N(C)[C@H]3[C@@](O)(C(N)=O)[C@H](O)[C@]5(CC)C=CCN6CC[C@]43[C@@H]65)C2)C1 | 123% | 110% | 114% | 106% | 89.2% | 43.2% | 26.3% | 20.5% | 20% | 15.7% | 6.67% | 118% | 104% | 124% | 124% | 97.8% | 44.8% | 26.6% | 24.3% | 20.4% | 16.3% | 5.01% | – | – | – | – | – | – | – | – | – | – | – |
| COc1cc(C(=O)NS(=O)(=O)c2ccccc2C)ccc1Cc1cn(C)c2ccc(NC(=O)OC3CCCC3)cc12 | 59.7% | 55.9% | 66.9% | 73.4% | 87.5% | 90% | 80.7% | 70% | 64.4% | 62.6% | 5.13% | 69.7% | 54.8% | 64.2% | 76.6% | 77.9% | 83.2% | 62.4% | 76.5% | 63% | 72.5% | 5.4% | 85.4% | 83.3% | 73.3% | 63.4% | 92.4% | 85.2% | 39.6% | 70.5% | 78.9% | 71.3% | 4.48% |
| CC(C)[C@H](N)C(=O)OCCOC[N]1C=NC2=C1\N=C(N)/NC2=O | 92.4% | 101% | 119% | 127% | 121% | 117% | 119% | 116% | 103% | 115% | 107% | 107% | 112% | 126% | 134% | 122% | 123% | 126% | 166% | 112% | 133% | 99% | 80.4% | 85.4% | 104% | 109% | 116% | 95.3% | 102% | 90.5% | 92.7% | 98.7% | 78% |
| CN(C)C1=C(Br)C=C(C=C1)C\2NC3=C(\C4=C2C(=O)CC(C)(C)C4)C5=CC=CC=C5C=C3 (stereo not drawn) | 113% | 119% | 125% | 130% | 131% | 131% | 113% | 120% | 128% | 120% | 97.8% | 93.1% | 112% | 122% | 128% | 127% | 127% | 93.1% | 114% | 126% | 118% | 85.4% | 105% | 115% | 137% | 121% | 132% | 123% | 107% | 131% | 116% | 109% | 100% |
| CC(NCCc1ccc(O)cc1)C(O)c1ccc(O)cc1 (stereo not drawn) | 84.4% | 80.5% | 73% | 89% | 86.1% | 84.1% | 74.6% | 98.7% | 90.7% | 105% | 84.8% | 133% | 119% | 122% | 118% | 117% | 110% | 90.6% | 112% | 105% | 111% | 81.9% | 106% | 110% | 109% | 111% | 97.5% | 103% | 92.5% | 107% | 98.2% | 103% | 99.4% |
| CCOC(=O)Nc1ccc(NCc2ccc(F)cc2)nc1N | 111% | 104% | 119% | 102% | 105% | 117% | 94.9% | 114% | 99.9% | 115% | 101% | 115% | 98.9% | 120% | 128% | 131% | 128% | 138% | 113% | 104% | 115% | 80.2% | 117% | 121% | 119% | 117% | 125% | 118% | 118% | 116% | 109% | 116% | 65.3% |
| OC1=CC2=C(C(=C1)O)C(=O)\C(=C(/O2)C3=CC(=C(O)C=C3)O)O | 89.1% | 84.2% | 93.4% | 99.4% | 98.2% | 94.4% | 97.4% | 110% | 111% | 94.8% | 75.1% | 83.6% | 85.2% | 92.1% | 88.3% | 111% | 104% | 115% | 101% | 92.6% | 104% | 69.8% | 79.7% | 97.7% | 106% | 96.1% | 99.6% | 109% | 106% | 105% | 108% | 102% | 71.5% |
| CC/1=C(\O)C(=O)\C=C2/C1=C/C=C3\[C@@]2(C)CC[C@@]4(C)[C@@H]5C[C@@](C)(CC[C@]5(C)CC[C@]34C)C(O)=O | 109% | 102% | 102% | 119% | 113% | 109% | 118% | 97.6% | 10.9% | 8.14% | 5.78% | 97.7% | 91.4% | 103% | 79.8% | 112% | 89% | 108% | 61.1% | 8.59% | 9.09% | 6.92% | 126% | 97.9% | 102% | 117% | 118% | 111% | 110% | 85.7% | 8.55% | 7.7% | 6.91% |
